We go through four molecules from patent publication US7316913B2, “Methods and means for influencing intracellular communication and intracellular organelle transport” (Stiftelsen Universitetsforskning Bergen, priority 2001, dated 2008).

The test system of test [1] is VP22 intercellular exchange. As to conditions: destruction of the filamentary actin; cited from earlier work.
In test [2] the test system is TNTs between PC12 cells. It counts as cell-based, rat.
The test system of test [3] is PC12 cells. Description: Thymidin G1/S cell cycle block: mitosis stadia and TNT formation. It counts as cell-based, rat. As to conditions: 2.5 mM thymidin, 14 hours before passage; analysed ca. 1 hour after passage. As for the experimental part: FIG. 12a—fluorescence microscopy image of PC12 cells ca. 1 hour after cell passage and staining with WGA, 20 minutes fixing in 4% paraformaldehyde/4% sucrose, 3 minutes treatment with 0.2% TRITON™ X-100 and nucleus staining with Dapi—left images in (a): the 14 hour long treatment of the cells before passage with 2.5 mM thymidin in the cell culture medium blocked the cells in the G1/S phase of the cell cycle and prevented a division of the cells; right images in (a): in non-treated PC12 cells (controls) there can be observed in the nucleus staining mitosis stadia (arrows). Despite the absence of mitosis stadia the thymidin treated PC12 cells form TNTs (arrow tips), (bar: 20 micrometer);
Via a three-dimensional videomicroscopic analysis of suprarenal medulla cells in accordance with Example 1 point 2a, b there was detected the formation of an organized TNT based network between the cells, via which a syncytium arises (FIGS. 2e, f, FIGS. 3n-q2, FIGS. 4a-c) and organelles can be unidirectionally transferred (FIGS. 4d-h, FIG. 14). TNTs were, in accordance with Example 16 found in all to date investigated cells structure systems such as PC12 cells, HEK cells (FIG. 16a) and primary cultures of the medulla (FIG. 16b) and of the hippocampus (FIG. 16c). With a special colouring method, moreover, very long TNTs have been found. […]

In test [4] the test system is PC12 cells. Description: Filipin staining of cellular cholesterol content. It counts as cell-based, rat. As to conditions: 5 millimolar methyl-β-cyclodextrin; filipin fluorescence, mean grey scale values. The method, then: FIG. 18—the effect of cholesterol on the stability of TNTs. Two hours after passage of PC12 cells, the cell culture medium was exchanged for DMEM with 5, 8 or 10 millimolar saccharose (controls) or DMEM with 5, 8 or 10 mM methyl-β-cyclodextrin and the cells incubated for half an hour at 30° C. and 10% CO2. After the addition of WGA a three-dimensional analysis of 10 randomly selected microscopic fields was carried out (Olympus IX70, 100× objective, […]™ System, Piezo-z-stepper, in each case 40 sections) and the number of TNTs determined. […] Quantifications yielded a strong reduction of the TNT number with increasing methyl-β-cyclodextrin concentration; 40% reduction at 5 millimolar methyl-β-cyclodextrin; 93% reduction at 8 millimolar methyl-β-cyclodextrin; 100% at 10 millimolar methyl-β-cyclodextrin (c1). […] For this purpose, the methyl-β-cyclodextrin or saccharose containing DMEM of the analysed cell was exchanged with DMEM having 20 microgramm per millilitre filipin and 15 minutes later the intensity of the fluorescence staining analysed in vivo with a FITC/TRITC/DAPI filter set (Chroma, Brattleboro). In detail, after excitation at 400 nm four randomly selected microscopic fields were imaged and the mean grey scale values determined. […]

Test [5] has as its system TNTs between PC12 cells. Description: Number of TNTs in PC12 cells after cholesterol extraction (WGA staining, three-dimensional microscopy). It counts as cell-based, rat. As to conditions: half an hour, 2 h after passage, vs saccharose controls.

For the molecule `C=C1[C@@H](C)[C@H]2[C@H](Cc3ccccc3)NC(=O)[C@]23[C@H](OC(C)=O)/C=C/[C@@](C)(O)C(=O)[C@@H](C)C/C=C/[C@H]3[C@@H]1O` [cytochalasin D], the “intercellular exchange of VP22” value in test [1] is “can be prevented”. As for `C/C1=C/C(=O)O[C@@H]2C[C@@H](CC[C@H](C)/C=C\CC1)O[C@@](O)([C@@H]1CSC(=O)N1)C2` [latrunculin B], the “effect on TNT formation and on TNTs present” value in the test with TNTs between PC12 cells [2] was “TNTs no longer form and TNTs present are destroyed”. For `Cc1cn([C@H]2C[C@H](O)[C@@H](CO)O2)c(=O)[nH]c1=O` [thymidin], in the test on PC12 cells [3], the “TNT formation retained in comparison with the controls” value was 86.5% and the “number of mitosis stadia in comparison with the controls” value was 20%. As to methyl-β-cyclodextrin, the “reduction of the cellular cholesterol content” value with PC12 cells [4] is recorded as 20%. Besides, the “reduction of the TNT number” value was 93% in the test with TNTs between PC12 cells [5] (8 millimolar methyl-β-cyclodextrin in DMEM) and 100% in the test with TNTs between PC12 cells [5] (10 millimolar methyl-β-cyclodextrin in DMEM).
